Assay results taken from a melting point compilation (Tetko et al.; mined from patent text by program, amines drawn as free bases though some values may be those of a salt).

SMILES | melting point [°C]
CC1(C)Oc2ccc(C#N)cc2[C@@H](N2CCCC2)[C@@H]1O (relative stereo) | 173 to 174
CC(=O)NC(Cc1ccc(C)c(C)c1)C(=O)O (racemic) | 136 to 139
CCCC(NOCC)=C1C(=O)CC(C2=C(C)CCCC2(C)C)C(C(=O)OC)C1=O (stereo not drawn) | 70
CCOC(=O)CNC(=O)N1CCc2cc(S(=O)(=O)N3CCN(c4cccc(Cl)c4)CC3)ccc21 | 150
CCOc1ccc(-c2nc3c4ccccc4ccc3n2C)cc1 | 138 to 139
N#Cc1cnn2c1N(C(=O)CCl)CC=C2c1cc(Cl)ccc1Cl | 235 to 236
CC(C)(C)c1cc2c(c(C(C)(C)C)c1)OP(Cl)Oc1c(cc(C(C)(C)C)cc1C(C)(C)C)C2 | 227 to 230
CCOC(=O)c1cc(-c2ccccc2)n(-c2cccc(Cl)c2)c1C | 99.6 to 100
COc1ccc2oc3ccc(I)cc3c2c1C(=O)Nc1cccnc1 | 286 to 287
CC(C)(C)NC(=O)Nc1nc2nc(NCCCN3CCOCC3)ncc2cc1-c1c(Cl)cccc1Cl | 236 to 240
O=C(O)c1ccc(-c2coc3ccc(-c4ccccc4)cc23)cc1 | 245 to 248
Cn1c(=O)[nH]c2nccnc2c1=O | 342 to 343
CNC(=O)CN1CCc2cc(Nc3ncc(Cl)c(Nc4c(F)cccc4C(=O)NC)n3)c(OC)cc2CC1 | 119 to 130
CCN(CC)c1cc2cnnn2c(C)n1 | 57 to 58
O=C(O[C@@H]1CC[C@H]1Cl)c1ccccc1 (relative stereo) | 20
Fc1cc(OCc2ccccc2)cnc1-c1ccccc1 | 105 to 106
Cc1cc([C@@H](O)[C@@H](C)N2CCC(O)(c3ccc(F)cc3)CC2)ccc1O[Si](C(C)C)(C(C)C)C(C)C (relative stereo) | 188 to 189
Cc1cc(CCC(=O)O)cc(-c2nc(=O)c3ccccc3s2)n1 | 233 to 235
CCCCCCCCCCCCCCCCCC(=O)Oc1cc(C(C)(C)C)c(O)c(C(C)(C)C)c1 | 35 to 39
Fc1ccc(Cl)c2oc(CCC#Cc3ccccn3)nc12 | 102 to 103
CC1(C)CC(=O)C2=C(C1)NC1=C(C(=O)CC(C)(C)C1)C2c1ccc(OC(F)(F)F)cc1 | 234
CC(=O)Nc1nc(CCN2CCC(c3c[nH]c4ccccc34)CC2)cs1 | 203 to 204
COc1ccccc1Oc1c(NS(=O)(=O)c2ccc(C(C)(C)C)cc2)nc(-c2ncccn2)nc1OCCOc1ccc(Br)cc1 | 251 to 256
CC(C)N1C(=O)c2ccc(Cl)nc2C1=O | 122 to 123

SMILES | melting point [°C]
Cc1ccc(NC(=O)c2ccc(C(=O)Nc3ccccc3N)cc2)cc1Nc1nc(-c2cccnc2)cs1 | 147
O=C(O)C1CCc2c([nH]c3ccc(F)cc23)C1 (stereo not drawn) | > 200
CCOC(=O)c1ccc(/C=C(\C)c2cc(OC)c3c(c2)C(C)(C)CC3(C)C)cc1 | 72 to 73
O=C(C=Cc1ccc(-c2ccc3ncnc(Nc4ccc(OCc5cccc(F)c5)c(Cl)c4)c3c2)s1)NOC1CCCCO1 (stereo not drawn) | 166
COc1cc(I)cc2c(O)c(C(=O)NCc3ccc(Cl)cc3)cnc12 | 241 to 243
CNC(=O)N=c1ccc(C)cn1-c1cccc(C(F)(F)F)c1 | 114
COCCOc1ccccc1S(=O)(=O)NC(=O)Nc1nc(C)cc(OC)n1 | 160 to 162
O=C(O)CCc1cccc(CNC(=O)C2Cc3ccccc3N2S(=O)(=O)c2ccc(-c3cccc(C(F)(F)F)c3)cc2)c1 (stereo not drawn) | 135
COCc1ccccc1-c1ccc(C(=O)O)cc1 | 164 to 166
COC(=O)C1=C(C)NC(C)=C(C(=O)OCCBr)C1c1cccc(Cl)c1Cl (stereo not drawn) | 180 to 182
CC(=O)c1ccc(-n2c(-c3cc(-c4ccc(S(C)(=O)=O)cc4)c(N4CCOCC4)s3)nc3ccccc3c2=O)cc1 | 239 to 242
COc1ccnc(C(=O)N[C@H]2COC(=O)[C@H](Cc3ccccc3)[C@@H](OC(=O)C(C)C)[C@H](C)OC2=O)c1OCc1ccccc1 | 169 to 170
CCCOc1ccc(S(=O)(=O)N2CCN(CCOC(=O)c3ccccc3)CC2)cc1-c1nc2c(CCC)cn(CC)c2c(=O)[nH]1 | 78 to 79
CS(=O)(=O)N[C@H]1CC[C@H](Nc2nccc(-n3ncc4ccccc43)n2)CC1 | 270
COc1ccc(-c2cc(-c3ccc(F)cc3)ccc2C(=O)O)cc1OC | 210
CCc1cc2c(C(=O)O)ccc(OC)c2o1 | 215 to 216
CCCSc1ncc(C(=O)N[C@@H](Cc2c[nH]cn2)C(=O)O)n1Cc1ccccc1Cl | 130 to 132
COc1ccc(COc2cccc(OC)c2C(=O)C=C(SC)SC)cc1 | 93 to 94
Cc1ccc(S(=O)(=O)OCCN(CCOS(=O)(=O)c2ccc(C)cc2)S(=O)(=O)c2ccc(C)cc2)cc1 | 85 to 87
CCCC(NC(=O)Nc1cccc(C)c1)C(=S)N(CC(=O)OC(C)(C)C)c1ccccc1 (racemic) | 142
CCc1nc2c(N)nc3ccccc3c2n1CC1(O)CCOC1 (stereo not drawn) | 245 to 247
O=C(O)CCCCCOc1cc(-c2ccc(NC(=O)C(F)(F)F)cc2)cc(-c2ccccc2)n1 | 178 to 180
CCCCNS(=O)(=O)c1cc(C(=O)CCl)ccc1Cl | 89
CCOCC1OC(n2cnc3c(NCc4cccc(I)c4)ncnc32)C(O)C1O (stereo not drawn) | 164 to 166

SMILES | melting point [°C]
CC1(C)CCN(C(=O)NCc2ccccc2)c2cc(C#N)ccc21 | 114 to 115
Cc1nc(CO)n(COCc2ccccc2)c1Sc1ccccc1 | 87 to 88
CC(C)(C)COc1c(-c2ccc(S(C)(=O)=O)cc2)cnn(CC(F)(F)F)c1=O | 145 to 146
O=C(NCCO)/C(=C/c1ccc(OC(F)(F)F)cc1)NC(=O)c1ccc(Oc2ccc(Cl)cc2)cc1 | 77 to 82
CCOC(=O)c1nc(C2CCCCC2)n(-c2cccc(Cl)c2F)c1Br | 150 to 152
CCS(=O)(=O)N(C(C)=O)c1cc(-c2ncnc(C(F)F)c2Cl)c(F)cc1C#N | 123 to 124
NNc1cc(-c2ccccn2)ccn1 | 120 to 121
O=C(c1ccc(OCc2ccnc3ccccc23)cc1)[NH+]([O-])C1CCN(Cc2ccccc2)CC1 (stereo not drawn) | 171 to 173
O=c1cc(CCN2CCC(c3c[nH]c4ccccc34)CC2)c2ccccc2[nH]1 | 259 to 260
CCOc1cccc(CSc2nc3cnccc3[nH]2)c1 | 158 to 161
Cc1nn(-c2cc(Sc3ccc(O)cc3)c(Cl)cc2Cl)c(=O)n1C(F)F | 228 to 229
C1=Cn2cnnc2Cc2ccccc21 | 157 to 158
CC(=O)N[C@@H](C)c1ccc(CO)cc1 | 103 to 104
CCS(=O)(=O)N(Cc1cccnc1)c1ccc(F)cc1F | 91 to 92
CN(C)c1ccc(C(=O)C(F)(F)c2cccc(Cl)c2)cc1 | 104 to 108
CN(c1cccc2cc(C(N)=S)[nH]c12)S(=O)(=O)c1cccs1 | 239 to 240
Cc1nccn1-c1cccc(C2=Nc3cc(O)c(-c4ccc(F)cc4)cc3NC(=O)C2)c1 | 260
CN(C)c1cc(N2C(=O)C3=C(CCCC3)C2=O)ccc1Cl | 124 to 127
Cc1nc(-c2cn(Cc3ccc(C(F)(F)F)cc3)nn2)sc1C(=O)NCc1cccnc1 | 204 to 205
CCCN1N=C2C(=Cc3ccc(OC)cc3)CSCC2C1c1ccc(OC)cc1 (stereo not drawn) | 150 to 152
COc1cccc(CC[C@H]2CN(Cc3ccccc3)CCN2Cc2ccccc2)c1 | 73 to 75
CNc1noc(C(C)c2cccc(C(=O)c3ccccc3)c2)n1 (stereo not drawn) | 100 to 101
O=C(O)c1cc(F)cc(-c2cccc3cc(Cc4cc(F)cc(Cl)c4)sc23)c1 | 168 to 170
O=C1Cc2cccc(-c3ccccc3)c2N1 | 167 to 169

SMILES | melting point [°C]
C=CCOc1ccc(OC)cc1C(=O)c1oc2ccc(Cl)cc2c1N | 115 to 116
O=c1nc(NCc2ccccc2F)c(F)cn1-c1ccsc1 | 75 to 78
CCCC(=O)NCc1ccc(C(=O)O)cc1 | 186 to 188
Cc1oc(-c2ccccc2)nc1CCOc1ccc(CC2SC(=O)NC2=O)cc1 (stereo not drawn) | 113 to 114
Nc1nccc(-c2c[nH]c3nccc(C#Cc4ccccc4)c23)n1 | > 210
COc1ccc2oc(N(C=O)[C@@H](Cc3ccccn3)c3ncc(-c4ccc(N5CCOCC5)cc4)n3C)cc2c1 | 122 to 124
CCCCCCCCS(=O)c1ccc(CC(N)(CO)CO)cc1 (stereo not drawn) | 80 to 82
O=[N+]([O-])c1cc(Cl)c(Oc2ccccc2)cc1Oc1ccccc1 | 95
CCOC(=NC(=O)Nc1ccc(OC(F)(F)F)cc1)N1Cc2ccccc2-c2ccccc2C1 | 129 to 130
Nc1ncnc2c1ncn2[C@@H]1C[C@H](O)[C@@H](O)[C@H]1O (racemic) | 282
N[C@@H]1CN(c2c(F)cc3c(=O)c(C(=O)O)cn(C4CC4)c3c2F)C[C@@H]1n1ccnn1 (relative stereo) | 245 to 247
COC(=O)c1c(C(C)(C)O)nc(C(C)OC)n1Cc1ccc(-c2ccccc2-c2nnnn2C(c2ccccc2)(c2ccccc2)c2ccccc2)cc1 (stereo not drawn) | 131 to 133
COC(=O)c1csc(NC(=O)[C@H](CC2CCCC2)c2ccc(Cl)c(Cl)c2)n1 | 143 to 144
COc1cc(-c2nn(C(C)(C)C)c(N)c2C(N)=O)cc(OC)c1OC | 180 to 192
O=C(c1ccc(O)cc1)c1sc2ccc(O)cc2c1-c1ccccc1 | 152 to 153
CC(C)OC(=O)C1=C(c2ccccc2)C(c2ccccc2)OC1=O (stereo not drawn) | 120 to 122
CCOc1c(-c2ccc3cc(NS(C)(=O)=O)ccc3c2)cc(-n2ccc(=O)[nH]c2=O)cc1C(C)(C)C | 196 to 202
COP(=O)(OC)[C@H](C)NC(=O)[C@H](C)NC(=O)[C@H](C)NC(=O)OCc1ccccc1 | 149 to 151
CC[C@H]1COC(=O)N1c1nc(-c2ccc(C#N)cc2)c(Cl)s1 | 157 to 159
CCCOc1nc(C(F)(F)C(F)(F)F)cc(=O)n1-c1cc(O)c(Cl)cc1F | 109 to 111
COc1cc(CN2CCc3c(sc(N)c3C(=O)c3ccc4ccccc4c3)C2)cc(OC)c1OC | 127 to 129
